Values of other authors, collected in patent publication US4139504A, “Novel nonapeptides, intermediates therefor, and compositions and methods employing said nonapeptides” (priority 1977, dated 1979).

What was measured:
[1] = test system: brain opiate receptor sites
rat = settings: injected directly into the brain of the rat

For “H--Tyr--Gly--Gly--Phe--Met--OH [methionine enkephalin]”, which “binding to partially purified brain opiate receptor sites” value [1] is on record?
Its value is “binds stereo-specifically”.

And the analgesic activity (rat)?
The analgesic activity was “only weak analgesic agent of short duration”.
